# Assay results taken from PubChem BioAssay (NCI).
#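 Test compounds were applied to cells in 96-well plates for 48 hours at 5 doses. Here, GI50 denotes the concentration required for 50% inhibition of growth. TGI: concentration producing complete growth inhibition.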
# How the values were obtained:
# Test in all cases: inhibition of tumour cell growth, NCI panel, 48 h
# [1] = tested on: 786-0 renal
# [2] = tested on: A498 renal
# [3] = tested on: A549 NSCLC
# [4] = tested on: ACHN renal
# [5] = tested on: BT-549 breast
# [6] = tested on: CAKI-1 renal
# [7] = tested on: CCRF-CEM leukemia
# [8] = tested on: COLO 205 colon
# [9] = tested on: DU-145 prostate
# [10] = tested on: EKVX NSCLC
# [11] = tested on: HCC-2998 colon
# [12] = tested on: HCT-116 colon
# [13] = tested on: HCT-15 colon
# [14] = tested on: HL-60(TB) leukemia
# [15] = tested on: HOP-62 NSCLC
# [16] = tested on: HOP-92 NSCLC
# [17] = tested on: HS 578T breast
# [18] = tested on: HT29 colon
# [19] = tested on: IGROV1 ovarian
# [20] = tested on: K-562 leukemia
# [21] = tested on: KM12 colon
# [22] = tested on: LOX IMVI melanoma
# [23] = tested on: M14 melanoma
# [24] = tested on: MALME-3M melanoma
# [25] = tested on: MCF7 breast
# [26] = tested on: MDA-MB-231 breast
# [27] = tested on: MDA-MB-435
# [28] = tested on: MDA-MB-468 breast
# [29] = tested on: MOLT-4 leukemia
# [30] = tested on: NCI-H226 lung
# [31] = tested on: NCI-H23 lung
# [32] = tested on: NCI-H460 lung
# [33] = tested on: NCI-H522 lung
# [34] = tested on: OVCAR-3 ovarian
# [35] = tested on: OVCAR-4 ovarian
# [36] = tested on: OVCAR-5 ovarian
# [37] = tested on: OVCAR-8 ovarian
# [38] = tested on: PC-3 prostate
# [39] = tested on: RPMI-8226 leukemia
# [40] = tested on: RXF 393 renal
# [41] = tested on: SF-268 CNS
# [42] = tested on: SF-295 CNS
# [43] = tested on: SF-539 CNS
# [44] = tested on: SK-MEL-2 melanoma
# [45] = tested on: SK-MEL-28 melanoma
# [46] = tested on: SK-MEL-5 melanoma
# [47] = tested on: SK-OV-3 ovarian
# [48] = tested on: SN12C renal
# [49] = tested on: SNB-19 CNS
# [50] = tested on: SNB-75 CNS
# [51] = tested on: SR leukemia
# [52] = tested on: SW-620 colon
# [53] = tested on: T-47D breast
# [54] = tested on: TK-10 renal
# [55] = tested on: U251 CNS
# [56] = tested on: UACC-257 melanoma
# [57] = tested on: UACC-62 melanoma
# [58] = tested on: UO-31 renal
smiles,measurement,setting,value
O=C1NC(=NC2CCCCCC2)N/C1=C\c1ccc2ncoc2c1,GI50,[1],5.02 µM
same,TGI,[1],47 µM
same,GI50,[2],2.09 µM
same,TGI,[2],8.84 µM
same,GI50,[3],3.01 µM
same,TGI,[3],32.1 µM
same,GI50,[4],2.68 µM
same,TGI,[4],10.1 µM
same,GI50,[5],1.94 µM
same,TGI,[5],12.3 µM
same,GI50,[6],2.61 µM
same,TGI,[6],12.9 µM
same,GI50,[7],2.87 µM
same,TGI,[7],16.2 µM
same,GI50,[8],3.14 µM
same,TGI,[8],14.2 µM
same,GI50,[9],4.02 µM
same,TGI,[9],17.1 µM
same,GI50,[10],8.68 µM
same,TGI,[10],49.4 µM
same,GI50,[11],12.3 µM
same,TGI,[11],27.6 µM
same,GI50,[12],1.92 µM
same,TGI,[12],10.9 µM
same,GI50,[13],3.41 µM
same,TGI,[13],26.4 µM
same,GI50,[14],3.69 µM
same,TGI,[14],19.3 µM
same,GI50,[15],3.3 µM
same,TGI,[15],45.6 µM
same,GI50,[16],6.58 µM
same,TGI,[16],58.6 µM
same,GI50,[17],2.87 µM
same,TGI,[17],26.5 µM
same,GI50,[18],9.36 µM
same,TGI,[18],37.8 µM
same,GI50,[19],4.35 µM
same,TGI,[19],34.1 µM
same,GI50,[20],4.97 µM
same,TGI,[20],37.2 µM
same,GI50,[21],3.83 µM
same,TGI,[21],19.1 µM
same,GI50,[22],4.33 µM
same,TGI,[22],20.9 µM
same,GI50,[23],8.62 µM
same,TGI,[23],25.2 µM
same,GI50,[24],10.5 µM
same,TGI,[24],24.4 µM
same,GI50,[25],3.58 µM
same,TGI,[25],30.2 µM
same,GI50,[26],11.3 µM
same,TGI,[26],58.4 µM
same,GI50,[27],6.27 µM
same,TGI,[27],21.4 µM
same,GI50,[28],2.44 µM
same,TGI,[28],12.6 µM
same,GI50,[29],3.51 µM
same,TGI,[29],22 µM
same,GI50,[30],2.63 µM
same,TGI,[30],> 100 µM
same,GI50,[31],3.16 µM
same,TGI,[31],18.7 µM
same,GI50,[32],4.08 µM
same,TGI,[32],15.6 µM
same,GI50,[33],1.27 µM
same,TGI,[33],15 µM
same,GI50,[34],2.13 µM
same,TGI,[34],9.17 µM
same,GI50,[35],12.4 µM
same,TGI,[35],53.4 µM
same,GI50,[36],4.33 µM
same,TGI,[36],68.4 µM
same,GI50,[37],3.55 µM
same,TGI,[37],18 µM
same,GI50,[38],8.53 µM
same,TGI,[38],60.6 µM
same,GI50,[39],5.22 µM
same,TGI,[39],31.7 µM
same,GI50,[40],2.02 µM
same,TGI,[40],5.32 µM
same,GI50,[41],5.61 µM
same,TGI,[41],38.8 µM
same,GI50,[42],7.52 µM
same,TGI,[42],> 100 µM
same,GI50,[43],1.01 µM
same,TGI,[43],5.75 µM
same,GI50,[44],2.86 µM
same,TGI,[44],9.46 µM
same,GI50,[45],3.5 µM
same,TGI,[45],14.1 µM
same,GI50,[46],3.66 µM
same,TGI,[46],14.8 µM
same,GI50,[47],2.71 µM
same,TGI,[47],62.9 µM
same,GI50,[48],2.89 µM
same,TGI,[48],18.1 µM
same,GI50,[49],2.43 µM
same,TGI,[49],44.6 µM
same,GI50,[50],0.757 µM
same,TGI,[50],12.3 µM
same,GI50,[51],1.97 µM
same,TGI,[51],8.09 µM
same,GI50,[52],3.27 µM
same,TGI,[52],18.9 µM
same,GI50,[53],2.87 µM
same,TGI,[53],63.2 µM
same,GI50,[54],3.86 µM
same,TGI,[54],> 100 µM
same,GI50,[55],3.54 µM
same,TGI,[55],68.9 µM
same,GI50,[56],5.95 µM
same,TGI,[56],23 µM
same,GI50,[57],2.74 µM
same,TGI,[57],12 µM
same,GI50,[58],3.31 µM
same,TGI,[58],9.46 µM
